Structures are written as SMILES.

The source of these data is ChEMBL document CHEMBL4351004, “New 3-tetrazolyl-β-carbolines and β-carboline-3-carboxylates with anti-cancer activity” (2019).

Common to all, as to type: functional
The test system of one assay is U-251. The assay is described as follows: Antiproliferative activity against human U251 cells assessed as growth inhibition after 48 hrs by sulforhodamine B assay. The conditions noted are these: U-251, 48 h. Background: The SRB assay estimates cell density from bound dye.
The next assay relates to MCF7. The assay is described as follows: Antiproliferative activity against human MCF7 cells assessed as growth inhibition after 48 hrs by sulforhodamine B assay. The note with it: MCF7, 48 h.
A further assay concerns PC-3. The assay is described as follows: Antiproliferative activity against human PC3 cells assessed as growth inhibition after 48 hrs by sulforhodamine B assay. The note with it: PC-3, 48 h.
Another assay has as its system NCI/ADR-RES. The assay is described as follows: Antiproliferative activity against human NCI-ADR-RES cells assessed as growth inhibition after 48 hrs by sulforhodamine B assay.
Another assay has as its system K562. Put plainly: Antiproliferative activity against human K562 cells assessed as growth inhibition after 48 hrs by sulforhodamine B assay. The conditions noted are these: K562, 48 h.
For a further assay, the system named is NCI-H460. The assay is described as follows: Antiproliferative activity against human NCI-H460 cells assessed as growth inhibition after 48 hrs by sulforhodamine B assay. The note with it: NCI-H460, 48 h.
The test system of the next assay is 786-0. The assay is described as follows: Antiproliferative activity against human 786-0 cells assessed as growth inhibition after 48 hrs by sulforhodamine B assay. The conditions noted are these: 786-0, 48 h.
In another assay the test system is HT-29. Put plainly: Antiproliferative activity against human HT-29 cells assessed as growth inhibition after 48 hrs by sulforhodamine B assay. The note with it: HT-29, 48 h.
Assay [1] can be described thus: Antiproliferative activity against human UACC61 cells assessed as growth inhibition after 48 hrs by sulforhodamine B assay.
The subject of a further assay is OVCAR-3. The assay is described as follows: Antiproliferative activity against human OVCAR3 cells assessed as growth inhibition after 48 hrs by sulforhodamine B assay. The note with it: OVCAR-3, 48 h.

Take `CCOC(=O)c1cc2c([nH]c3ccc(C)cc32)c(-c2ccccc2)n1`: the GI50 – broadly, the concentration at which growth is held to half of that of the control – is 7.44 µM in the assay with U-251; 5.08 µM in the assay with MCF7; 20.6 µM with PC-3; 2.66 µM in the assay with NCI/ADR-RES; 1.24 µM with K562; 6.96 µM in the assay with NCI-H460. Also, the GI50 amounted to 10.8 µM with 786-0, 7.14 µM with HT-29, 28.2 µM in assay [1] and 0.6 µM with OVCAR-3.
Consider `COC(=O)c1cc2c([nH]c3ccccc32)c(-c2cccc([N+](=O)[O-])c2)n1`, for which the GI50 with MCF7 is more than 100 µM; in the assay with PC-3 it was more than 100 µM; in the assay with NCI/ADR-RES it was more than 100 µM; in the assay with K562 it was 3.05 µM; in the assay with NCI-H460, more than 100 µM; in the assay on 786-0 it was 31.7 µM. The GI50 with HT-29 was more than 100 µM; in assay [1], 7.02 µM; in the assay on OVCAR-3, more than 100 µM.
With `CCOC(=O)c1cc2c([nH]c3ccc(OC)cc32)c(-c2ccccc2Cl)n1`, the GI50 was 22.1 µM in the assay with U-251; more than 100 µM in the assay with MCF7; more than 100 µM in the assay on PC-3; more than 100 µM in the assay on NCI/ADR-RES; more than 100 µM with K562; 65.6 µM in the assay on NCI-H460. Moreover, the GI50 was 12.2 µM in the assay with 786-0, more than 100 µM in the assay on HT-29, 7.71 µM in [1] and more than 100 µM with OVCAR-3.
Take `COC(=O)c1cc2c([nH]c3ccccc32)c(-c2ccc(O)cc2)n1`: the GI50 was 27.5 µM in the assay on MCF7; 20.7 µM in the assay on PC-3; 25.7 µM in the assay on NCI/ADR-RES; more than 100 µM in the assay with K562; 28.5 µM with NCI-H460; 29.5 µM with 786-0. For the same compound, the GI50 amounted to 25.1 µM in the assay on HT-29, 12 µM in [1] and 21.1 µM in the assay with OVCAR-3.
Regarding `COC(=O)c1cc2c([nH]c3ccccc32)c(-c2ccc(N(C)C)cc2)n1`, the GI50 in the assay with MCF7 is 36.8 µM; in the assay with PC-3, 9.56 µM; with NCI/ADR-RES, 11.6 µM; with K562, 21.8 µM; in the assay with NCI-H460 it was 15.3 µM; in the assay on 786-0 it was 20.4 µM. The GI50 turned out to be 34 µM in the assay with HT-29, 3.61 µM in assay [1] and 28.4 µM in the assay on OVCAR-3.
Turning to `COc1ccc(-c2nc(-c3nnnn3Cc3ccccc3)cc3c2[nH]c2ccccc23)cc1`, the GI50 in the assay on U-251 amounted to 3.82 µM; with MCF7, 1.32 µM; with PC-3, 5.73 µM; in the assay on NCI/ADR-RES, 2.7 µM; in the assay on K562 it was 7.14 µM; in the assay with NCI-H460, 1.59 µM. Besides, the GI50 with 786-0 amounted to 2.17 µM; in the assay on HT-29, 18.3 µM; in [1] it was 88.1 µM; in the assay on OVCAR-3 it was 1.62 µM.
As for `CCOC(=O)c1cc2c([nH]c3ccc(OC)cc32)c(-c2ccc(OC)cc2)n1`, the GI50 is 70.8 µM in the assay with U-251; more than 100 µM with MCF7; more than 100 µM with PC-3; more than 100 µM in the assay on NCI/ADR-RES; more than 100 µM in the assay with K562; 74.8 µM in the assay on NCI-H460. In addition, the GI50 in the assay with 786-0 was 20.9 µM; in the assay with HT-29 it was more than 100 µM; in [1], more than 100 µM; in the assay with OVCAR-3, more than 100 µM.
In the case of `Fc1ccc(-c2nc(-c3nnn[nH]3)cc3c2[nH]c2ccccc23)cc1`, the GI50 was found to be 8.17 µM with U-251; 10.1 µM in the assay with MCF7; 71.8 µM in the assay on PC-3; 36.6 µM in the assay on NCI/ADR-RES; 10.7 µM in the assay with K562; 14.8 µM with NCI-H460. The GI50 with 786-0 was determined as 64.5 µM; in the assay with HT-29, 25.6 µM; in assay [1], 63.3 µM; in the assay with OVCAR-3, 0.27 µM.
As for `COc1cccc2c1C(=O)c1c(O)c3c(c(O)c1C2=O)C[C@@](O)(C(=O)CO)C[C@@H]3O[C@H]1C[C@H](N)[C@H](O)[C@H](C)O1` [DOXORUBICIN], the GI50 is 0.21 µM in the assay with U-251; 0.073 µM in the assay on MCF7; 0.74 µM in the assay on PC-3; 1.44 µM in the assay with NCI/ADR-RES; 1.11 µM in the assay with K562; 0.37 µM in the assay with NCI-H460. The GI50 in the assay with 786-0 was 0.15 µM; in the assay with HT-29, 2.58 µM; in [1] it was 0.047 µM; in the assay with OVCAR-3, 0.0087 µM.
Turning to `CCOC(=O)c1cc2c([nH]c3ccc(OC)cc32)c(-c2cccc([N+](=O)[O-])c2)n1`, the GI50 in the assay on U-251, with MCF7, in the assay on PC-3, with NCI/ADR-RES, in the assay with K562 and with NCI-H460 was more than 100 µM each time. The GI50 was more than 100 µM in the assay with 786-0, more than 100 µM in the assay on HT-29, 19.7 µM in assay [1] and more than 100 µM in the assay on OVCAR-3.
For the compound `CCOC(=O)c1cc2c([nH]c3ccc(OC)cc32)c(-c2ccc(O)cc2)n1`, the GI50 was 7.26 µM in the assay with U-251; 6.57 µM with MCF7; 3.28 µM with PC-3; 6.54 µM in the assay on NCI/ADR-RES; 4.36 µM with K562; 6.95 µM in the assay with NCI-H460. The GI50 in the assay on 786-0 is 7.51 µM; with HT-29, 7.74 µM; in [1] it was more than 100 µM; with OVCAR-3, 0.66 µM.
With `CCOC(=O)c1cc2c([nH]c3ccc(C)cc32)c(-c2ccc(OC)cc2)n1`, the GI50 in the assay with U-251 is 7.07 µM; with MCF7 it was 32.2 µM; in the assay with PC-3, more than 100 µM; with NCI/ADR-RES, 41.6 µM; with K562, 25.1 µM; in the assay with NCI-H460, 11.6 µM. Also, the GI50 is 4.27 µM in the assay with 786-0, 80.1 µM in the assay with HT-29, 23.3 µM in assay [1] and 0.61 µM with OVCAR-3.
Regarding `COC(=O)c1cc2c([nH]c3ccccc32)c(-c2ccccc2)n1`, the GI50 in the assay on MCF7, in the assay on PC-3, in the assay with NCI/ADR-RES, in the assay on K562, with NCI-H460 and in the assay with 786-0 was more than 100 µM in each case. The GI50 in the assay on HT-29 was more than 100 µM; in assay [1], 5.45 µM; in the assay with OVCAR-3, more than 100 µM.
As for `COC(=O)c1cc2c([nH]c3ccccc32)c(-c2ccc(OC)cc2)n1`, the GI50 came out at 52.7 µM with MCF7; 10.2 µM with PC-3; 1.11 µM with NCI/ADR-RES; 0.04 µM in the assay with K562; 0.38 µM in the assay on NCI-H460; 32.7 µM in the assay with 786-0. Also, the GI50 was 24.8 µM with HT-29, 2.61 µM in assay [1] and 39.4 µM in the assay with OVCAR-3.
On to `COC(=O)c1cc2c([nH]c3ccccc32)c(-c2ccccc2Cl)n1`, for which the GI50 in the assay on MCF7 amounted to 36.4 µM; in the assay on PC-3 it was 22.3 µM; in the assay on NCI/ADR-RES, 27.6 µM; in the assay on K562, 13.5 µM; in the assay on NCI-H460, 26.8 µM; in the assay with 786-0 it was 42.4 µM. The GI50 in the assay with HT-29 amounted to 25.3 µM; in [1] it was 5.76 µM; with OVCAR-3, 21.6 µM.
Turning to `c1ccc(Cn2nnnc2-c2cc3c([nH]c4ccccc43)c(-c3ccccc3)n2)cc1`, the GI50 with U-251 was 63.5 µM; with MCF7 it was 4.4 µM; with PC-3, more than 100 µM; in the assay with NCI/ADR-RES, 71 µM; in the assay on K562 it was 27.4 µM; in the assay on NCI-H460, 31.9 µM. Also, the GI50 in the assay on 786-0 is 70.6 µM; in the assay with HT-29 it was more than 100 µM; in [1], 37 µM; in the assay on OVCAR-3, more than 100 µM.
As for `Fc1ccc(-c2nc(-c3nnnn3Cc3ccccc3)cc3c2[nH]c2ccccc23)cc1`, the GI50 in the assay on U-251 is 1.38 µM; with MCF7 it was 1.04 µM; in the assay on PC-3, 6.11 µM; in the assay on NCI/ADR-RES, 2.07 µM; with K562, 0.69 µM; in the assay on NCI-H460, 20.2 µM. Also, the GI50 in the assay on 786-0 was 0.69 µM; in the assay with HT-29, 6.51 µM; in assay [1], more than 100 µM; with OVCAR-3, 0.57 µM.
Regarding `CCOC(=O)c1cc2c([nH]c3ccc(OC)cc32)c(-c2ccccc2)n1`, the GI50 with U-251 was more than 100 µM; in the assay with MCF7 it was 79.6 µM; in the assay with PC-3, more than 100 µM; with NCI/ADR-RES, more than 100 µM; in the assay with K562, more than 100 µM; in the assay on NCI-H460, more than 100 µM. The GI50 (with 786-0; in the assay on HT-29; in assay [1]; in the assay with OVCAR-3) was more than 100 µM in each case.
Take `CCOC(=O)c1cc2c([nH]c3ccc(OC)cc32)c(-c2ccc(N(C)C)cc2)n1`: the GI50 with U-251 is 0.95 µM; in the assay on MCF7, more than 100 µM; with PC-3, 7.74 µM; with NCI/ADR-RES, 4.29 µM; with K562, more than 100 µM; in the assay with NCI-H460, 12.7 µM. The GI50 in the assay on 786-0 is 1.4 µM; in the assay with HT-29, more than 100 µM; in assay [1], 0.28 µM; with OVCAR-3 it was more than 100 µM.
